Measured values published in patent US11453671B2, “Pyrazolopyrimidine inhibitors of JAK kinases and uses thereof” (Genentech, Inc., priority 2020, dated 2022).

What was measured:
[1] = system: JAK1: IL-13-stimulated STAT6 phosphorylation in BEAS-2B cells; assay: P-STAT6 BEAS-2B+IL-13 Cell Assay; type: cell-based, human; details: Homo sapiens, BEAS-2B, IL-13 stimulation, read-out: Cellular JAK1 PSTAT6 BEAS2B + IL13 IC50
Protocol: P-STAT6 BEAS-2B+IL-13 Cell Assay
In order to study the effect of JAK1 inhibitors in a cell line that is relevant to the cell biology of human asthma, an IL-13-stimulated STAT6 phosphorylation assay in the human lung bronchial epithelial BEAS-2B cell line was developed.
BEAS-2B cells (ATCC® CRL-9609™) were grown in Bronchial Epithelial Growth Medium (BEGM) (Lonza Catalog No. CC-3170; Walkersville, Md.; or PromoCell Catalog No. C-21060; Heidelberg, Germany). Test compound stock solutions (0.5 mM in DMSO) were serially diluted 1:2 in DMSO to generate a 10-point concentration curve (at 500×test concentration), which was further diluted by a 50-fold dilution step in BEGM to generate a 10× concentration curve (in 2% DMSO). Cells were plated at 100,000 cells/well in 200 μL of BEGM in 96-well plates and incubated for 48 hours at 37° C. in a humidified incubator. Medium was aspirated from the cells and replaced with 70 μL of fresh BEGM. Diluted test compound (10 μL; or 2% DMSO in assay medium) was added to the cells, and the plates were incubated for 1 hour at 37° C. in a humidified incubator. Twenty μL of 250 ng/mL human recombinant IL-13 (Bio Techne Catalog No. 213-ILB) was then added to the cells and incubated for 15 minutes at 37° C. Medium was aspirated from the cells and 60 μL of ice-cold 1×cell lysis buffer (Cell Signaling Technologies; Catalog No. 9803S) containing 1 mM PMSF was added to the cells. Assay plates were incubated at −80° C. for at least 1 hour. P-STAT6 was measured by coating GAR plates (MSD; Catalog No. L45RA-1) with rabbit anti-human total STAT6 antibody (Cell Signaling Technologies; Catalog No. 9362S), incubating the cell lysates in the coated plates overnight at 4° C., and then detecting with mouse anti-phospho-STAT6 (Tyr641) Clone 16E12 antibody (Millipore; Catalog No. 05-590, custom labeled by MSD with SULFO-tag) using standard MSD plate processing, washing, and detection protocols. Plates were read on the MESO SECTOR S600. Data Analysis
Data analysis was performed by subtracting negative control values from all wells and determining percent of control using the positive control values; the IC50 was determined with a four-parameter logistic fit model as shown in Equation 4.

[2] = target: T1, recombinant human JAK1 kinase domain protein (Residues 854-1154) (Homo sapiens, UniProt P23458); assay: JAK1 biochemical assay (microfluidic mobility shift, peptide phosphorylation); details: 25 μM ATP, 1 nM total JAK1; read-out: Enzyme JAK1 Ki
T1 construct: human JAK1 kinase domain protein (Residues 854-1154); purchased Proteros Biostructures GmbH (Martinsried, Germany); host or cells: insect cells
From the text: JAK1 and JAK2 Biochemical Assays

[3] = target: Recombinant human JAK2 kinase domain protein (Residues 812-1132) (Homo sapiens, UniProt O60674); assay: JAK2 biochemical assay (microfluidic mobility shift, peptide phosphorylation); details: Enzyme JAK2 Ki (nM), 25 μM ATP, 0.2 nM total JAK2
Chain of Recombinant human JAK2 kinase domain protein (Residues 812-1132) (O60674 812-1132): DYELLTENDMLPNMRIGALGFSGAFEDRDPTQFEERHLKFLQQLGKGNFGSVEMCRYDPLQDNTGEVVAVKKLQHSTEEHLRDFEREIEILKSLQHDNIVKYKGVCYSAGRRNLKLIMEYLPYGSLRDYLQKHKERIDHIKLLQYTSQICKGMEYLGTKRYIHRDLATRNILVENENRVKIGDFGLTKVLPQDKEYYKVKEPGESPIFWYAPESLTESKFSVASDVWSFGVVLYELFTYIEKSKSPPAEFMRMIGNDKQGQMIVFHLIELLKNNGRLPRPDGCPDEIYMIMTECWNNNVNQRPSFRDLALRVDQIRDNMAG

T1 sequence (P23458 854-1154): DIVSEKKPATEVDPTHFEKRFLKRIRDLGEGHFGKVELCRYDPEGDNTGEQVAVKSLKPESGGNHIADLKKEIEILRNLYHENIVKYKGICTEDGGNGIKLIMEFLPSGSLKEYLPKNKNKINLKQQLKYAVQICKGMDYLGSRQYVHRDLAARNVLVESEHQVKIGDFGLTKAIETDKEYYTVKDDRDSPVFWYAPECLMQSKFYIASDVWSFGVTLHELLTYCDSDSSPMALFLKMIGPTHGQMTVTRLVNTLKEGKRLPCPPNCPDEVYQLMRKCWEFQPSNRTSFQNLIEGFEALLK

Compound | Ki [2] | Ki [3] | IC50 [1]
CN1C=Cc2cc(S(=O)(=O)c3ccc(OC(F)F)c(-c4nn(C)cc4NC(=O)c4cnn5cccnc45)c3)ccc2C1 [Example 64, N-[3-[2-(difluoromethoxy)-5-[(2-methyl-1H-isoquinolin-6-yl)sulfonyl]phenyl]-1-methyl-pyrazol-4-yl]pyrazolo[1,5-a]pyrimidine-3-carboxamide] | 1.9 nM | 0.84 nM | 210 nM
CN1CC(S(=O)(=O)c2ccc(OC(F)F)c(-c3nn(C)cc3NC(=O)c3cnn4cccnc34)c2)C1 [Example 3, N-[3-[2-(difluoromethoxy)-5-(1-methylazetidin-3-yl)sulfonyl-phenyl]-1-methyl-pyrazol-4-yl]pyrazolo[1,5-a]pyrimidine-3-carboxamide] | 2 nM | 0.66 nM | 58 nM
Cn1cc(NC(=O)c2cnn3cccnc23)c(-c2cc(S(=O)(=O)C(CF)CF)ccc2OC(F)F)n1 [Example 39, N-[3-[2-(difluoromethoxy)-5-[2-fluoro-1-(fluoromethyl)ethyl]sulfonyl-phenyl]-1-methyl-pyrazol-4-yl]pyrazolo[1,5-a]pyrimidine-3-carboxamide] | 1.5 nM | 0.53 nM | 230 nM
Cn1cc(NC(=O)c2cnn3cccnc23)c(-c2cc(S(N)(=O)=O)ccc2OC(F)F)n1 [Example 31, N-[3-[2-(difluoromethoxy)-5-sulfamoyl-phenyl]-1-methyl-pyrazol-4-yl]pyrazolo[1,5-a]pyrimidine-3-carboxamide] | 0.84 nM | 0.38 nM | 51 nM

The next compounds have a lower Ki [2] than those just listed; values first:

Ki [2] | Ki [3] | Compound | IC50 [1]
0.31 nM | 0.33 nM | Cn1cc(NC(=O)c2cnn3cccnc23)c(-c2cc(S(=O)(=O)c3cnn(CCN)c3)ccc2OC(F)F)n1 [Example 47, N-[3-[5-[1-(2-aminoethyl)pyrazol-4-yl]sulfonyl-2-(difluoromethoxy)phenyl]-1-methyl-pyrazol-4-yl]pyrazolo[1,5-a]pyrimidine-3-carboxamide] | 210 nM
0.58 nM | 0.37 nM | N#CCn1cc(NC(=O)c2cnn3cccnc23)c(-c2cc(S(=O)(=O)C(F)F)ccc2OC(F)F)n1 [Example 29, N-[1-(cyanomethyl)-3-[2-(difluoromethoxy)-5-(difluoromethylsulfonyl)phenyl]pyrazol-4-yl]pyrazolo[1,5-a]pyrimidine-3-carboxamide] | 25 nM
0.39 nM | 0.21 nM | N#CCn1cc(NC(=O)c2cnn3cccnc23)c(-c2cc(S(=O)(=O)C3COC3)ccc2OC(F)F)n1 [Example 51, N-[1-(cyanomethyl)-3-[2-(difluoromethoxy)-5-(oxetan-3-ylsulfonyl)phenyl]pyrazol-4-yl]pyrazolo[1,5-a]pyrimidine-3-carboxamide] | 100 nM
0.55 nM | 0.18 nM | Cn1cc(NC(=O)c2cnn3cccnc23)c(-c2cc(S(=O)(=O)c3c[nH]cn3)ccc2OC(F)F)n1 [Example 66, N-[3-[2-(difluoromethoxy)-5-(1H-imidazol-4-ylsulfonyl)phenyl]-1-methyl-pyrazol-4-yl]pyrazolo[1,5-a]pyrimidine-3-carboxamide] | 380 nM
0.57 nM | 0.54 nM | CN1CCCC1CCn1cc(S(=O)(=O)c2ccc(OC(F)F)c(-c3nn(C)cc3NC(=O)c3cnn4cccnc34)c2)cn1 (stereo in doubt) [Example 57, N-[3-[2-(difluoromethoxy)-5-[1-[2-[(2S)-1-methylpyrrolidin-2-yl]ethyl]pyrazol-4-yl]sulfonyl-phenyl]-1-methyl-pyrazol-4-yl]pyrazolo[1,5-a]pyrimidine-3-carboxamide] | 54 nM
0.72 nM | 0.24 nM | Cn1cnc(S(=O)(=O)c2ccc(OC(F)F)c(-c3nn(C)cc3NC(=O)c3cnn4cccnc34)c2)c1 [Example 65, N-[3-[2-(difluoromethoxy)-5-(1-methylimidazol-4-yl)sulfonyl-phenyl]-1-methyl-pyrazol-4-yl]pyrazolo[1,5-a]pyrimidine-3-carboxamide] | 72 nM
